Laboratory results as given in patent US12492169B2, “Aminopyridine compound and application thereof” (priority 2020, dated 2025).
Converted amounts (≈) assume the structure as drawn. “And” between values parts separate entries of the source, which are not always exact repeats. Identical values can stand only once. Like-named read-outs stand apart in the source and are kept apart here.

Key:
[1] = test system: Aspergillus fumigatus ATCC-MYA-4609; assay: Minimum effective concentration (MEC) test against fungi; format: cell-based; settings: change of hyphae morphology by microscope, 48 hours, three independent experiments
Procedure: (§1) To test the minimum inhibitory concentration (MIC) and minimum effective concentration (MEC) of the drug against fungi.
(§2) Aspergillus fumigatus ATCC-MYA-4609; Aspergillus flavus ATCC MYA-1004
(§3) Test medium: RPMI1640 (containing 0.165 M MOPS, pH7.0)
(§4) On the day of the experiment, the compound in the bottle was dissolved in 100% DMSO to a stock solution concentration of 6.24 mg/mL. Then, the mixture was 10-fold diluted with DMSO to 0.624 mg/mL for use.
(§5) A 2-fold gradient dilution of the compound solution (0.624 mg/mL) was performed using DMSO on a 96-microwell plate (V-bottom) to obtain 100× working solutions (wells 1 to 11). 624, 312, 156, 78, 39, 20, 10, 5, 2.5, 1.25, 0.625 μg/mL. 100% DMSO was used as a positive control (well 12). This was the compound stock plate.
(§6) Aspergillus fumigatus ATCC-MYA-4609; Aspergillus flavus ATCC MYA-1004 frozen at −80° C. were streaked on SDA plates and incubated aerobically in a 30±2° C. incubator for 6 days.
(§7) For strains Aspergillus fumigatus ATCC MYA-4609; Aspergillus flavus ATCC MYA-1004, after taking out the plate, 3 mL of 0.9% normal saline containing 0.1% Tween20 was added to the plate and the spores were gently collected. The spores were counted with a hemocytometer and the spore suspension was adjusted to about 5×10^6 spores/mL. Then the spore suspension was diluted to 0.8 to 1×10^5 spores/mL with a test medium.
(§8) 2 μL of 100× working solution from the compound stock plate (prepared in 3.1) was transferred to a round-bottomed 96-well plate (containing 98 μL of test medium), and then 100 μL of fungus inoculum (prepared in 3.2) was added to each well to obtain a MIC test plate. Therefore, the final test concentrations of the compounds were 6.24, 3.12, 1.56, 0.78, 0.39, 0.20, 0.10, 0.05, 0.025, 0.0125, 0.006 μg/mL. 1% DMSO was used as a growth control.
(§9) For mold strains Aspergillus fumigatus ATCC-MYA-4609 and Aspergillus flavus ATCC MYA-1004, all test plates were incubated aerobically in a 35±° C. incubator for 48 hours.
(§10) After incubation, according to the criteria in Table 1 below, the test plate was observed by eye or microscope to determine the MIC (g/mL) and MEC (g/mL) of the test compound against yeast and mold.

[2] = test system: Aspergillus flavus ATCC MYA-1004; assay: as above; format: cell-based; settings: change of hyphae morphology by microscope, 48 hours, three independent experiments
Procedure: as §1, §2, §3, §4, §5, §6, §7, §8, §9, §10

[3] = test system: Candida tropicalis ATCC 750; assay: Minimum inhibitory concentration (MIC) test against fungi; format: cell-based; settings: ≥50% growth inhibition by eye, three independent experiments
Procedure: as §1
(§11) Experimental strains: Candida parapsilosis ATCC 22019; Candida albicans ATCC MYA-2876; Candida albicans WX-CA009; Candida glabrata ATCC15126; Candida tropicalis ATCC 750;
as §3, §4, §5
(§12) Candida parapsilosis ATCC 22019 and Candida albicans ATCC MYA-2876; Candida albicans WX-CA009; Candida glabrata ATCC15126; Candida tropicalis ATCC 750 frozen at −80° C. were streaked on SDA plates and incubated aerobically in a 35±2° C. incubator for 24 hours.
(§13) On the day of the experiment, for strains Candida parapsilosis ATCC 22019, Candida albicans ATCC MYA-2876; Candida albicans WX-CA009; Candida glabrata ATCC15126; Candida tropicalis ATCC 750 and Cryptococcus neoformans H99 ATCC 208821, the plates were taken out and the clones on the plates were picked, suspended in normal saline, and then the turbidity of the fungal suspension was adjusted to OD600=0.2 using a turbidimeter. The fungal suspension contained about 3.0×10^6 CFU/mL. Then the turbidity-adjusted fungal suspension was diluted with a test medium to a concentration of about 3.0×10^3 CFU/mL. This was the inoculum.
as §8
(§14) For strains Candida parapsilosis ATCC 22019; Candida albicans ATCC MYA-2876; Candida albicans WX-CA009; Candida glabrata ATCC15126; Candida tropicalis ATCC 750, all test plates were incubated aerobically in a 35±2° C. incubator for 24 hours.
as §10

[4] = test system: Candida glabrata ATCC15126; assay: as above; format: cell-based; settings: ≥50% growth inhibition by eye, three independent experiments
Procedure: as §1, §11, §3, §4, §5, §12, §13, §8, §14, §10

[5] = test system: Candida parapsilosis ATCC 22019; assay: as above; format: cell-based; settings: ≥50% growth inhibition by eye, three independent experiments (1st, 2nd, 3rd time)
Procedure: as §1, §11, §3, §4, §5, §12, §13, §8, §14, §10

[6] = test system: Candida albicans WX-CA009; assay: as above; format: cell-based; settings: ≥50% growth inhibition by eye, three independent experiments
Procedure: as §1, §11, §3, §4, §5, §12, §13, §8, §14, §10

[7] = test system: Cryptococcus neoformans H99 ATCC 208821; assay: as above; format: cell-based; settings: ≥50% growth inhibition by eye, three independent experiments
Procedure: as §1
Cryptococcus neoformans H99 ATCC 208821;
as §3, §4, §5
Cryptococcus neoformans H99 ATCC 208821 frozen at −80° C. was streaked on SDA plates and incubated aerobically in a 35±2° C. incubator for 48 hours.
as §13, §8
For Cryptococcus neoformans H99 ATCC 208821, all test plates were incubated aerobically in a 35±2° C. incubator for 72 hours.
as §10

[8] = Mouse pharmacokinetic evaluation, intraperitoneal injection after oral ABT; format: in vivo; settings: ip, female CD-1 mice, ABT 50 mg/kg orally 2 hours before, plasma; for AUC: read-out: Concentration Integral AUC; for Cmax: read-out: Peak Concentration Cmax; for Tmax: read-out: Peak Time Tmax
From the text: Experimental Purpose: Using female CD-1 mice as test animals, LC/MS/MS was used to measure the plasma drug concentration at different times after intraperitoneal injection of the test compound. To study the pharmacokinetic behavior of the test compound in mice and evaluate its pharmacokinetic characteristics. Drug preparation: An appropriate amount of sample was weighed and then prepared into a clear or suspended solution. Administration scheme: Two healthy female CD-1 mice were taken, purchased from Beijing Vital River Laboratory Animal Technology Co., Ltd., and given a normal diet. The drug was administered through intraperitoneal injection. Operational steps: 2 hours before administration, 1-aminobenzotriazole (ABT) was orally administered (50 mg/kg, 5 mg/mL in normal saline), and after animal administration, about 30 μL of blood was collected at 0.083, 0.25, 0.5, 1, 2, 4, 8, and 24 hours, and placed in commercially available anticoagulant tubes pre-added with EDTA-K2. The tubes were centrifuged for 10 minutes to separate the plasma, and the plasma was stored at −60° C. The content of the target compound in the plasma sample was determined by LC/MS/MS method, and the experimental results are shown in Table 3.

[9] = test system: Candida albicans ATCC MYA-2876; assay: Minimum inhibitory concentration (MIC) test against fungi; format: cell-based; settings: ≥50% growth inhibition by eye, three independent experiments
Procedure: as §1, §11, §3, §4, §5, §12, §13, §8, §14, §10

[10] = test system: Candida albicans ATCC MYA-2876; assay: Mouse candidemia efficacy model; format: in vivo; settings: female CD-1 mice infected with Candida albicans ATCC MYA-2876; 26 mg/kg intraperitoneally once a day for 7 days after 50 mg/kg ABT orally; n=5
Procedure: Experimental animals: female CD-1 mice, 7 weeks old, 27 to 29 g, n=5 or 8;
microbial pathogen: Candida albicans ATCC MYA-2876;
inoculation level and route: 2.0 to 4.0E+05 CFU/mouse, infected by tail vein injection;
treatment: The treatment started at 1 hour after infection. Firstly, ABT was administered orally, and 2 hours later, the test compound was injected intraperitoneally once a day for 7 days in total, with an administration volume of 10 mL/kg.
Observation indicators: Changes in body weight and mortality within 7 days after infection in each group of mice.

[11] = Pharmacokinetic evaluation in rats (IV, PO); format: in vivo, Sprague-Dawley strain rats; settings: rat plasma
From the text: (§15) Experimental Purpose: To evaluate the druggability of the compounds by measuring its pharmacokinetic properties in different animal species.
(§16) Experimental materials: CD-1 mice, Sprague-Dawley strain rats, beagle dogs, and crab-eating macaques.
(§17) Drug preparation: An appropriate amount of sample was weighed and then prepared into a clear or suspended solution.
(§18) Experimental procedure: The animal pharmacokinetic characteristics after intravenous injection and oral administration of the compound were tested using a standard protocol. The candidate compound was prepared as a clear solution (for intravenous injection) or a homogeneous suspension (for oral administration) during the experiment and administered to the animals as a single dose. Whole blood samples were collected at 0.083, 0.25, 0.5, 1, 2, 4, 8, and 24 hours, centrifuged at 3200 g for 10 minutes to separate the supernatant to obtain plasma samples. The plasma concentration was quantitatively analyzed by LC-MS/MS analysis method and pharmacokinetic parameters were calculated, such as peak concentration, peak time, clearance rate, half-life, area under the drug-time curve, etc.

in vivo = assay: in vivo; design: species or system crab-eating macaques
From the text: as §15, §16, §17, §18

[12] = Pharmacokinetic evaluation in dogs (IV, PO); format: in vivo, beagle dogs; settings: dog plasma
From the text: as §15, §16, §17, §18

[13] = Candida tropicalis, ATCC750, 24 h, read-out: MIC
[14] = Nakaseomyces glabratus, ATCC15126, 24 h, read-out: MIC
[15] = Lodderomyces parapsilosis, ATCC22019, 24 h, read-out: MIC
[16] = Candida albicans, WXCA009, 24 h, read-out: MIC
[17] = Cryptococcus neoformans, ATCC208821, 72 h, read-out: MIC
[18] = Candida albicans, 24 h, read-out: MIC

SMILES	MEC [1]	MEC [2]	MIC [3, 13] [µg/mL]	MIC [4, 14] [µg/mL]	MIC [5, 15] [µg/mL]	MIC [6, 16] [µg/mL]	MIC ([6]; 24 hours) [µg/mL]	MIC [7, 17] [µg/mL]	MIC [9, 18] [µg/mL]	AUC ([8]; 6 mpk) [µM·h]	Cmax ([8]; 6 mpk) [µM]	Tmax ([8]; 6 mpk) [h]	further results
Nc1ncccc1C#CCc1ccc(COc2ccccn2)cc1 [WX003]	0.1 µg/mL and 0.2 µg/mL	0.2 µg/mL and 0.39 µg/mL	0.0125 (≈ 0.0396 µM)	0.39 (≈ 1.24 µM)	0.025 (≈ 0.0793 µM)	0.0125 (≈ 0.0396 µM)	0.025 (≈ 0.0793 µM)	0.39 (≈ 1.24 µM)					MIC ([4]; 24 hours): 0.78 µg/mL (≈ 2.47 µM); AUC ([8]; 26 mpk): 27 µM·h; Cmax ([8]; 26 mpk): 13.5 µM; Tmax ([8]; 26 mpk): 0.5 h
Nc1ccc(C#CCc2ccc(COc3ccccn3)cc2)c(F)n1 [WX005]	0.39 µg/mL and 0.2 µg/mL	3.12 µg/mL		1.56 (≈ 4.68 µM)	0.2 (≈ 0.6 µM)	0.1 (≈ 0.3 µM)	0.05 (≈ 0.15 µM)	> 6.24	0.05 (≈ 0.15 µM)				MIC ([5]; 24 hours): 0.1 µg/mL (≈ 0.3 µM); MIC ([9]; 24 hours): 0.1 µg/mL (≈ 0.3 µM); MIC ([7]; 72 hours): 6.24 µg/mL (≈ 18.7 µM)
Cc1nc(N)ccc1C#CCc1ccc(COc2ccccn2)cc1 [WX006]	0.1 µg/mL and 0.05 µg/mL	0.39 µg/mL and 0.2 µg/mL	0.0125 (≈ 0.0379 µM)	0.39 (≈ 1.18 µM)	0.05 (≈ 0.152 µM)	0.05 (≈ 0.152 µM)	0.025 (≈ 0.0759 µM)	0.78 (≈ 2.37 µM)	0.025 (≈ 0.0759 µM)				protection from death caused by candidemia [10]: completely protect; MIC ([3]; 24 hours): 0.025 µg/mL (≈ 0.0759 µM); MIC ([9]; 24 hours): 0.0125 µg/mL (≈ 0.0379 µM); AUC ([8]; 26 mpk): 221 µM·h; Cmax ([8]; 26 mpk): 23 µM; Tmax ([8]; 26 mpk): 1.5 h
Cc1cc(C#CCc2ccc(COc3ccccn3)cc2)cnc1N [WX007]	0.39 µg/mL	0.39 µg/mL	0.05 (≈ 0.152 µM)	0.78 (≈ 2.37 µM)	0.1 (≈ 0.304 µM)	0.05 (≈ 0.152 µM)		1.56 (≈ 4.74 µM)	0.1 (≈ 0.304 µM)	64	4.7	1.5	
Nc1ncc(C#CCc2ccc(COc3ccccn3)cc2)cc1F [WX008]	1.56 µg/mL	0.39 µg/mL	0.05 (≈ 0.15 µM)	0.78 (≈ 2.34 µM)	0.05 (≈ 0.15 µM)	0.05 (≈ 0.15 µM)		3.12 (≈ 9.36 µM)	0.05 (≈ 0.15 µM)	75	4.7	4.3	
Nc1ccc(C#CCc2ccc(Oc3cccc(F)n3)cc2)cn1 [WX009]	0.39 µg/mL	0.39 µg/mL	0.1 (≈ 0.313 µM)	0.78 (≈ 2.44 µM)	0.05 (≈ 0.157 µM)	0.05 (≈ 0.157 µM)		0.025 (≈ 0.0783 µM)	0.05 (≈ 0.157 µM)	67	11.4	0.75	protection from death caused by candidemia [10]: completely protect
Nc1ccc(C#CCc2ccc(COc3ccccn3)cc2)c[n+]1COP(=O)(O)O [WX013]													time to complete decomposition into the parent drug WX004 [11]: ≤ 0.5 h; time to complete decomposition into the parent drug WX004 (in vivo; crab-eating macaque, crab-eating macaque (monkey)): ≤ 0.5 h; F % (in vivo; monkey, po, 13.5 mg/kg): 89%; time to complete decomposition into the parent drug WX004 [12]: ≤ 0.5 h
